Data: article PMC6130680, “In vitro and in vivo antidiabetic potential of extracts and a furostanol saponin from Balanites aegyptiaca” (Pharmaceutical Biology, 2017)
Marks after values point to notes of the source that are not given here.

Key:
[1] = target: α-Glucosidase enzyme from Brewer's yeast (EC 3.2.1.20); assay: α-glucosidase (AG) inhibition assay; type: biochemical; settings: mean ± standard error; substrate p-NPG; a dash for a tested fraction or compound means no AG activity
Excerpt: (§1) The positive control, acarbose, was purchased from Bayer Pharmaceuticals Pty, Ltd. (Wayne, NJ). Human recombinant aldose reductase and DL-glyceraldehyde were purchased from Wako Pure Chemical Industries, Ltd. (Osaka, Japan). Gliclazide was obtained from Servier Canada (Laval, QC, Canada). Pre-coated silica plates 60 GF254 (20 × 20 cm) (Fluka, Steinheim, Germany) were used for thin-layer chromatography (TLC). Silica gel H (Merck, Darmstadt, Germany) and Lichroprep RP-18 silica gel (15–25 μm, Merck, Darmstadt, Germany) were used for vacuum liquid chromatography (VLC). Silica gel 60 (70–230 mesh ASTM, Fluka, Steinheim, Germany), Diaion HP 20 (Sigma-Aldrich, St. Louis, MO), and Sephadex LH-20 (Sigma-Aldrich, Steinheim, Sweden) were used for column chromatography (CC). Spots were visualized by spraying with p-anisaldehyde/sulphuric acid.
(§2) AG and AR inhibitory activities of MeEx, ClFr, BuFr, AqFr, as well as the Diaion fractions D1–D6 were tested. AG inhibition was measured spectrophotometrically in a 96-well microplate reader using a procedure reported by Li et al. ([2009]). Acarbose was used as a positive control. The AR (EC 1.1.1.21) inhibitory activity was measured according to the procedure previously reported (Nishimura et al. [1991]). The experiments were repeated three times, and the IC50 values were calculated and expressed as mean ± standard error.

[2] = target: T1, Human recombinant aldose reductase (Homo sapiens, UniProt P15121); assay: aldose reductase (AR) inhibition assay; type: biochemical; settings: mean ± standard error
T1 construct: purchased Wako Pure Chemical Industries, Ltd. (Osaka, Japan)
Excerpt: as §1, §2

[3] = test system: STZ-induced diabetic rats; assay: in vivo antidiabetic activity in STZ-induced diabetic rats; set-up: species or system male albino rats (Wistar strain); settings: for Glucose level: fasting serum; for Glucose level / C-peptide / Cholesterol level / Insulin / Triglycerides: mean ± SEM, n = 6; for C-peptide / Cholesterol level / Insulin / Triglycerides: serum
Method: (§3) Male albino rats (Wistar strain, 150–200 g) and male mature albino mice of 20–25 g were obtained from the animal house colony of the National Research Center, Egypt. The experimental protocol followed the Institutional Animal Ethical Committee of the National Research Centre. The acute toxicity studies were performed on the mice. […] The animals survived and then four additional animals were tested sequentially so that a total of five animals were tested.
DM was induced by a single i.p. injection of STZ (55 mg/kg) in rats (Brosky and Logothetopoulos [1969]). Only rats with serum glucose levels of more than 250 mg/dL were selected and considered diabetic animals. MeEx, its active fraction (BuFr) and the active compound 3 were tested in the STZ-induced diabetic rats at two dose levels (100 and 200 mg/kg.b/wt) for 2 weeks. At the end of the 2-weeks treatment period, the animals were kept for an overnight fasting and the blood samples were collected from the retroorbital plexus and allowed to clot for 30 min at room temperature. These blood samples were centrifuged at 5000 rpm for 20 min and the serum was separated and stored at −80 °C until analysis was done. Serum samples were analyzed spectrophotometrically for serum glucose, triglycerides and cholesterol. Serum glucose was estimated by glucose oxidase–peroxidase method test agent kit (Stanbio, Boerne, TX) (Cheyne and Gilmore [1973]). Triglycerides were estimated by enzymatic methods by using a diagnostic kit (Biodiagnostic, Cairo, Egypt) (Fossati and Prencipe [1982]). Total cholesterol was estimated by enzymatic methods by using a diagnostic kit (Biodiagnostic, Cairo, Egypt) (Allain et al. [1974]). Serum insulin was estimated by a […] using the ALPCO Insulin (Rat) ELISA kit (Judzewitsch et al. [1982]). Serum C-peptide was measured with a rat insulin enzyme-linked immune absorbent assay kit (C-Peptide EIA Kit, Sigma-Aldrich, St. Louis, MO). Results were expressed as mean ± SEM for biochemical estimations. The quantitative data were analyzed by ANOVA followed by Tukey multiple comparison tests. The Kruskal–Wallis test was used for the quantitative analysis of the histopathology score values. Results were considered to be significant at p < 0.05.

male mature albino mice = assay: acute toxicity study in mice; type: in vivo; settings: ascending oral doses up to 2000 mg/kg, observed closely for 24 h and daily for 14 days
Method: as §3
The acute toxicities of the three samples (MeEx, BuFr and compound 3) were studied where the mice took ascending oral doses up to 2000 mg/kg of each sample. They were observed closely for 24 h and daily for 14 days, where no mortality was observed.

[4] = 200 mg/kg for 2 weeks, versus diabetic control

In the case of `C[C@H]1O[C@H](O[C@H]2[C@H](O)[C@@H](O)[C@@H](O[C@H]3[C@H](O)[C@@H](O)C(O)O[C@@H]3CO)O[C@@H]2CO)[C@H](O)[C@@H](O)[C@@H]1N[C@H]1C=C(CO)[C@@H](O)[C@H](O)[C@H]1O` (stereo partly shown) [Acarbose, acarbose, reference compound], the “AG inhibition IC50” value [1] is reported as 24.00 ± 2.31 µg/mL.

`CC[C@H](/C=C/C(C)C1CCC2C3CC=C4C[C@@H](O[C@@H]5O[C@H](CO)[C@@H](O)[C@H](O)[C@H]5O)CCC4(C)C3CCC12C)C(C)C` (stereo partly drawn) [Compound 1, stigmasterol-3-O-β-D-glucopyranoside] was tested, and the “AR inhibition IC50” value [2] was “inactive” and the IC50 [2] was 49.7 µM.

`CC(O)C1C(O)CC2C3CC=C4CC(OC5OC(CO)C(O)C(O)C5O)CCC4(C)C3CCC21C` [Compound 2, pregn-5-ene-3β,16β,20(R)-triol 3-O-β-D-glucopyranoside] was tested, and the “AR inhibition IC50” value [2] was “inactive” and the IC50 [2] was 24.6 µM.

For `COC1(CC[C@@H](C)CO[C@@H]2O[C@H](CO)[C@@H](O)[C@H](O)[C@H]2O)OC2C[C@H]3[C@@H]4CC=C5C[C@@H](O[C@@H]6O[C@H](CO)[C@@H](O[C@@H]7O[C@H](CO)[C@@H](O)[C@H](O)[C@H]7O)[C@H](O)[C@H]6O[C@@H]6O[C@@H](C)[C@H](O)[C@@H](O)[C@H]6O)CC[C@]5(C)[C@H]4CC[C@]3(C)C2[C@@H]1C` (stereo partly drawn) [Compound 3, 26-(O-β-D-glucopyranosyl)-22-O-methylfurost-5-ene-3β,26-diol-3-O-β-D-glucopyranosyl-(1 → 4)-[α-L-rhamnopyranosyl-(1 → 2)]-β-D-glucopyranoside], the “AG inhibition IC50” value [1] was 03.12 ± 0.17 µg/mL, the IC50 [2] was 0.964 µM and the Glucose level ([3]; 100 mg/kg for 2 weeks) was 207.4 ± 18.33^a mg/dL. For the same molecule, the C-peptide ([3]; 100 mg/kg for 2 weeks) was 1.42 ± 0.07^a ng/mL, the Cholesterol level ([3]; 100 mg/kg for 2 weeks) was 139.2 ± 10.30 mg/dL and the Insulin ([3]; 100 mg/kg for 2 weeks) was 1.99 ± 0.04^a μIU/mL. The Triglycerides ([3]; 100 mg/kg for 2 weeks) was 112.2 ± 9.89 mg/dL, the Glucose level ([3]; 200 mg/kg for 2 weeks) was 122.2 ± 18.22^b mg/dL and the C-peptide ([3]; 200 mg/kg for 2 weeks) was 2.04 ± 0.06^b ng/mL. The Cholesterol level ([3]; 200 mg/kg for 2 weeks) was 115.6 ± 7.12^b mg/dL, the Insulin ([3]; 200 mg/kg for 2 weeks) was 3.17 ± 0.28^b μIU/mL and the Triglycerides ([3]; 200 mg/kg for 2 weeks) was 113.5 ± 7.73 mg/dL. The “increase in C-peptide level” value [3, 4] was 65%, the “reduction in fasting blood/plasma glucose level” value [3, 4] was 51.39% and the “reduction in total cholesterol level” value [3, 4] was 31.19%. For the same molecule, the “reduction in total cholesterol level” value ([3]; 200 mg/kg for 2 weeks, versus diabetic control, listed as furostanol saponin 3) was 31.9% and the “mortality (acute toxicity)” value (male mature albino mice) was “no mortality”.

For `Cc1ccc(S(=O)(=O)NC(=O)NN2CC3CCCC3C2)cc1` (stereo not shown) [Gliclazide, reference compound], the Glucose level ([3]; 10 mg/kg (standard drug)) was 93.09 ± 5.80^b mg/dL, the C-peptide ([3]; 10 mg/kg (standard drug)) was 1.78 ± 0.11 ng/mL and the Cholesterol level ([3]; 10 mg/kg (standard drug)) was 125.3 ± 5.98^b mg/dL. The Insulin ([3]; 10 mg/kg (standard drug)) was 2.82 ± 0.18^a^,^b μIU/mL, the Triglycerides ([3]; 10 mg/kg (standard drug)) was 103.7 ± 9.73 mg/dL and the “reduction in cholesterol level” value ([3]; 10 mg/kg (standard drug), versus diabetic control) was 25.42%.
